Earlier results as cited in patent US7879906B2, “GABA analogs, compositions and methods for manufacturing thereof” (Anchen Laboratories, Inc., priority 2006, dated 2011).

Test system: mouse

Structure (SMILES) | toxicity (LD50, mouse)
NCC1(CC(=O)O)CCCCC1 [gabapentin] | more than 8000 mg/kg
O=C1CC2(CCCCC2)CN1 [gabapentin lactam] | 300 mg/kg
